Here are results for two molecules from PMC12091851, “Replacing a Cereblon Ligand by a DDB1 and CUL4 Associated Factor 11 (DCAF11) Recruiter Converts a Selective Histone Deacetylase 6 PROTAC into a Pan‐Degrader” (Chemmedchem, 2025).

One assay concerns MM.1S cells. The assay can be described thus: Cell cycle analysis by PI staining and flow cytometry. It is filed as cell-based, human. Particulars: 10 μM, 48 h. The method, then:
GraphPad Prism (GraphPad Software). […]
Biotech), resuspended in 1 mL EtOH/D PBS (7/3 v/v), and fixed for 30 min at 4 °C. The samples were rehydrated with DPBS and treated with 5 µg /mL RNAse ( Catalog# EN0531 , ThermoFisher Scientific Inc.) for 15 min at room temperature. The staining was performed with 3 µM propidium iodide (in DPBS) for 15 min at room temperature and analyzed by flow cytometry ( Guava easyCyteTM, Luminex, […]
Lakes, NJ, USA), using the Watson Pragmatic algorithm.[6] GraphPad Prism (GraphPad Software) was used for normalization, statistical analysis, and bar graph creation. Significance testing was performed with a one-way analysis of variance (ANOVA). Dunnett’s post-hoc test was employed to obtain […]
Final DMSO concentration was 0.1%.
Staining was performed with
Fluorescence was measured by flow cytometry (Guava® easyCyteTM, Luminex, Austin, Texas). GraphPad Prism (GraphPad Software) was used for normalization, statistical analysis, and bar graph creation. Significance testing was performed with a one-way analysis of variance (ANOVA).
Subsequently, cells were harvested and […]
After 30 minutes of incubation at […]
Dunnett’s post-hoc test was employed
A general note: Flow cytometry measures light scatter and fluorescence of single cells or particles in a stream.

Another assay deals with MDA-MB-231 cells. The assay can be described thus: Clonogenic growth assay. It is filed as cell-based, human. The settings on record: 10 μM for 48 h, nine days of growth. The method, then: Figure 9 Clonogenic growth assay of DCAF11‐recruiting PROTACs. MDA‐MB‐231 cells were treated with 10 μM of the respective compound or vehicle (DMSO) for 48 hours. (A) Representative images of crystal violet stained colonies after nine days of growth. (B) Quantification of counted colonies, presented as mean ± standard deviation of three biological replicates, each performed in triplicates. Significance of quantification compared to vehicle: ns=p≥0.05; **=p≤0.01 and ***=p≤0.001. […]
Subsequently, cells were harvested and
plated in 6-well plates at a density of 750 cells per well in triplicates. The cell culture medium was
changed after five days. Nine days after plating, the colonies were carefully washed with 500 µL DPBS
and stained with 500 µL crystal violet solution (0.5% in methanol). After 30 minutes of incubation at
room temperature, the wells were gently rinsed with deionized water. After counting the formed
colonies, GraphPad Prism (GraphPad Software) was used for bar graph creation. Significance testing
was performed with a one-way analysis of variance (ANOVA). Dunnett’s post-hoc test was employed
to obtain significance levels of each mean compared to a reference mean value.

A further assay concerns the target HDAC1 (Homo sapiens, UniProt Q13547). The assay can be described thus: Immunoblot HDAC1 degradation in MM.1S cell lysates. The settings on record: MM1.S, MM.1S cells, 24 h, read-out: maximal degradation (Dmax) HDAC1. It is filed as cell-based. Also noted: endogenous in cells; host or cells: MM.1S. The method, then:
Figure 6 Examination of HDAC isoform degradation. MM.1S cells were treated with the indicated compounds (10 μM) or vehicle (DMSO) for 24 h. HDAC1, 2, 4, and 6 levels were analyzed by immunoblotting. (A) Representative images from a total of n=3 biological replicates.
2.5. Aqueous Stability Assay
For stability testing in aqueous solution, a 10-fold concentrated DMSO solution of the respective compounds was diluted in DPBS to generate a 10 µM concentration (final DMSO content of 10%).
Samples of the aqueous solutions were taken after 0, 24, 48, and 72 h at room temperature and the amounts of the parental compound and potential fragments were monitored by HPLC gradient A (see 3.1 General Information). […]
(§1) Afterwards, proteins were transferred with the Trans -Blot Turbo Transfer System (Catalog# 1704150, Bio-Rad) to Immobilon-FL PVDF membranes (Catalog# IPFL00005, Mill ipore Merck, Burlington, MA, USA) at 1.0 A for 30 min and treated with 5% milk-powder solution for 1 h at room temperature under slight agitation. […] The ChemiDoc XRS+ System (Catalog# 1708265 , Bio-Rad) was used for detection and Image Lab Software 6.1 (Bio-Rad) for quantification. […]
In vitro inhibitory activities against HDAC1, 2 , and 6 were measured using a previously published protocol.[3] In vitro inhibitory activities against HDAC4 were measured using a previously published protocol with slight modifications. […]

The next assay deals with HDAC4 (Homo sapiens, UniProt P56524). Nature of the assay: Immunoblot HDAC4 degradation in MM.1S cell lysates. It is filed as cell-based. Also noted: endogenous in cells; host or cells: MM.1S. Particulars: MM1.S, MM.1S cells, 24 h, read-out: maximal degradation (Dmax) HDAC4. The protocol:
Figure 6 Examination of HDAC isoform degradation. MM.1S cells were treated with the indicated compounds (10 μM) or vehicle (DMSO) for 24 h. HDAC1, 2, 4, and 6 levels were analyzed by immunoblotting. (A) Representative images from a total of n=3 biological replicates. […]
The cell lysis was performed as descripted in 3.2. Simple Western Immunoassay. Samples were denatured by Laemmli 2× Concentrate (Catalog# S3401-10VL, Sigma-Aldrich) for 5 min at 95 °C, and Precision Plus Protein Unstained Standard was used as molecular weight marker (Catalog# 1610363, Bio-Rad, Hercules, CA, USA). SDS-PAGE was performed with 10 or 12% Mini-PROTEAN TGX Stain-Free Gel (Catalog# 458035, Bio -Rad) at 200 V for 50 min (Catalog# 458035, Bio -Rad).
as §1

Sequence of HDAC1 (Q13547 whole entry, canonical isoform): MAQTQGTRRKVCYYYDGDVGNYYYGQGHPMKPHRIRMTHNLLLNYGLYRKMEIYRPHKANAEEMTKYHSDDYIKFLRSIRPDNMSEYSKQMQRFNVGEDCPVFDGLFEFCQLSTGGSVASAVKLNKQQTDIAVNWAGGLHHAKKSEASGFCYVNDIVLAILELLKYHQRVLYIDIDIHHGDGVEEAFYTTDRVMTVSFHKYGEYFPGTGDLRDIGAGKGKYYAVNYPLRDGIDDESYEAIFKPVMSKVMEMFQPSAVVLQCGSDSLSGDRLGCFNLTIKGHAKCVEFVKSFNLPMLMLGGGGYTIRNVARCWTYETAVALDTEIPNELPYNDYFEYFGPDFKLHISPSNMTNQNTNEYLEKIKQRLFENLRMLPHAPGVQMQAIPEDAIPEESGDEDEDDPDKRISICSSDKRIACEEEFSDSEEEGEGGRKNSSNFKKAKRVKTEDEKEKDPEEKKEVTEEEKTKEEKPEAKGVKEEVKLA
Sequence of HDAC4 (P56524 whole entry, canonical isoform): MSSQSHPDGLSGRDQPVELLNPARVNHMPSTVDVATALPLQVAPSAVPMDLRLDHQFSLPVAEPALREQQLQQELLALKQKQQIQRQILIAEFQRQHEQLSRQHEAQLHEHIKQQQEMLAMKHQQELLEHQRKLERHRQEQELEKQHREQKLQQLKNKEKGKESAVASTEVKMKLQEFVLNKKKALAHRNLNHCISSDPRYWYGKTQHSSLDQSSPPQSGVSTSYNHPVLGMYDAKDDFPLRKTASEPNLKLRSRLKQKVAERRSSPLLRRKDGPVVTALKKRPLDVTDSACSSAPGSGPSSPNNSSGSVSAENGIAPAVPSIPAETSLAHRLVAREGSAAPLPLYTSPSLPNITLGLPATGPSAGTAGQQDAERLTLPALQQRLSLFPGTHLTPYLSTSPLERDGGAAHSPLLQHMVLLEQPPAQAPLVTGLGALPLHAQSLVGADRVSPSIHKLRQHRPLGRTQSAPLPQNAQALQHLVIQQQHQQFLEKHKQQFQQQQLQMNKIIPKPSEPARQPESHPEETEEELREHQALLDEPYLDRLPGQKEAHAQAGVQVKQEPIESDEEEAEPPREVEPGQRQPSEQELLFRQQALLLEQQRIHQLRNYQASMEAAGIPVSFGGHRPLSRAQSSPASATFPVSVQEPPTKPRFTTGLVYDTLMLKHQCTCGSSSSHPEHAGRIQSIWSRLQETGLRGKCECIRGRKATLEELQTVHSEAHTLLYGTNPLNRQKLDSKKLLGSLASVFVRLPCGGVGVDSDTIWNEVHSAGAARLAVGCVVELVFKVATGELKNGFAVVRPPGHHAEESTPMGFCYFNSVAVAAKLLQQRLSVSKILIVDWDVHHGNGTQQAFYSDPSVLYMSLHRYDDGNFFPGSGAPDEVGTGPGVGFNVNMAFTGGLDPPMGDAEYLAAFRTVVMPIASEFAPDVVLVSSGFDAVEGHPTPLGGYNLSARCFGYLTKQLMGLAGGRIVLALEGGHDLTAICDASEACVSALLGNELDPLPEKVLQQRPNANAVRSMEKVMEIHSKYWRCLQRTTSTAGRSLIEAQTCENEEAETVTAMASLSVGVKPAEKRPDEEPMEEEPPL

Turning to `O=C(CCCCCCNC(=O)c1ccc(NC(=O)CCCCCCCCCCCN(C(=O)CCl)C(C(=O)NCc2ccccc2)c2ccc(Cl)c(Cl)c2)cc1)NO` (centres unmarked) [Compound 1j], the “effect on cell cycle phases” value with MM.1S cells is “increase of the sub G1 phase, while the S phase was decreased”. The “reduction of colonies (clonogenic growth)” value in the assay on MDA-MB-231 cells is “significant reduction of colonies”. Besides, the Dmax (commonly the largest share of the target that was removed) at 10 µM at HDAC1 is 90%; at HDAC4, 71 to 76%.

For the molecule `O=C(CCCCCCNC(=O)c1ccc(N(C(=O)CCl)C(C(=O)NCc2ccccc2)c2ccc(Cl)c(Cl)c2)cc1)NO` (centres unmarked) [Compound 2], the “effect on cell cycle phases” value with MM.1S cells is reported as “increase of the sub G1 phase, while the S phase was decreased”. Besides, the “reduction of colonies (clonogenic growth)” value with MDA-MB-231 cells is listed as “significant reduction of colonies”. The Dmax at 10 µM on HDAC1 came to 74%; at HDAC4 it was 40%.
